According to US20100099561A1, “HETEROBICYCLIC ALKYLTHIO-BRIDGED ISOXAZOLINES” (E.I. DU PONT DE NEMOURS AND COMPANY, priority 2008, published 2010):

Columns and labels:
Format in all cases: in vivo
corn (Zea mays) [1] = assay: Test A preemergence, corn; details: 0 to 100 scale (0 no effect, 100 complete control)
In short: (§1)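 Pre: directed soil spray after sowing in loam/sand. Post: seedlings at 1–2 leaf stage, 2–10 cm. Vehicle: non-phytotoxic solvent mix + surfactant. Greenhouse ~10 d; visual injury 0–100 vs untreated controls.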

[2] = tested on: pigweed (Amaranthus retroflexus); assay: Test A preemergence, pigweed; details: 0 to 100 scale (0 no effect, 100 complete control)
In short: as §1

corn (Zea mays) [3] = assay: Test A postemergence, corn; details: 0 to 100 scale (0 no effect, 100 complete control)
In short: as §1

[4] = tested on: morningglory (Ipomoea spp.); assay: Test A preemergence, morningglory; details: 0 to 100 scale (0 no effect, 100 complete control)
In short: as §1

[5] = tested on: barnyardgrass (Echinochloa crus-galli); assay: Test A postemergence, barnyardgrass; details: 0 to 100 scale (0 no effect, 100 complete control)
In short: as §1

[6] = tested on: pigweed (Amaranthus retroflexus); assay: Test A postemergence, pigweed; details: 0 to 100 scale (0 no effect, 100 complete control)
In short: as §1

rice (Oryza sativa) = assay: Test B flooded paddy test, rice; details: Flood, scale 0 to 100
In short: (§2)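 2-leaf plants; pots flooded 3 cm above soil; compound added to paddy water; depth maintained. Greenhouse 13–15 d. Visual rating vs controls, 0 (no effect) to 100 (complete control); dash = no result.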

[7] = tested on: large crabgrass (Digitaria sanguinalis); assay: Test A preemergence, large crabgrass; details: 0 to 100 scale (0 no effect, 100 complete control)
In short: as §1

[8] = tested on: velvetleaf (Abutilon theophrasti); assay: Test A postemergence, velvetleaf; details: 0 to 100 scale (0 no effect, 100 complete control)
In short: as §1

[9] = tested on: large crabgrass (Digitaria sanguinalis); assay: Test A postemergence, large crabgrass; details: 0 to 100 scale (0 no effect, 100 complete control)
In short: as §1

[10] = tested on: wheat (Triticum aestivum); assay: Test A postemergence, wheat; details: 0 to 100 scale (0 no effect, 100 complete control)
In short: as §1

[11] = tested on: velvetleaf (Abutilon theophrasti); assay: Test A preemergence, velvetleaf; details: 0 to 100 scale (0 no effect, 100 complete control)
In short: as §1

[12] = tested on: barnyardgrass (Echinochloa crus-galli); assay: Test B flooded paddy test, barnyardgrass; details: Flood
In short: as §2

[13] = tested on: giant foxtail (Setaria faberi); assay: Test A postemergence, giant foxtail; details: 0 to 100 scale (0 no effect, 100 complete control)
In short: as §1

[14] = tested on: morningglory (Ipomoea spp.); assay: Test A postemergence, morningglory; details: 0 to 100 scale (0 no effect, 100 complete control)
In short: as §1

[15] = tested on: barnyardgrass (Echinochloa crus-galli); assay: Test A preemergence, barnyardgrass; details: 0 to 100 scale (0 no effect, 100 complete control)
In short: as §1

[16] = tested on: giant foxtail (Setaria faberi); assay: Test A preemergence, giant foxtail; details: 0 to 100 scale (0 no effect, 100 complete control)
In short: as §1

[17] = tested on: umbrella sedge (Cyperus difformis); assay: Test B flooded paddy test, umbrella sedge; details: Flood, scale 0 to 100
In short: as §2

[18] = tested on: ducksalad (Heteranthera limosa); assay: Test B flooded paddy test, ducksalad; details: Flood, scale 0 to 100
In short: as §2

[19] = tested on: wheat (Triticum aestivum); assay: Test A preemergence, wheat; details: 0 to 100 scale (0 no effect, 100 complete control)
In short: as §1

[20] = 250 g ai/ha, scale 0 to 100 (0 no effect, 100 complete control)

Structure (SMILES): CC1(C)CC([S+]([O-])Cc2c(C(F)(F)Cl)nc3n(c2=O)CCCS3)=NO1 (centres unmarked) [Compound 36]
- Plant response rating, Corn (corn (Zea mays) [1]; 125 g ai/ha): 0
- Plant response rating, Corn (corn (Zea mays) [1]; 500 g ai/ha): 10
- Plant response rating, Pigweed ([2]; 125 g ai/ha): 0
- Plant response rating, Pigweed ([2]; 500 g ai/ha): 0
- Plant response rating, Corn (corn (Zea mays) [3]; 500 g ai/ha): 0
- Plant response rating, Morningglory ([4]; 125 g ai/ha): 0
- Plant response rating, Morningglory ([4]; 500 g ai/ha): 0
- Plant response rating, Barnyardgrass ([5]; 125 g ai/ha): 20
- Plant response rating, Barnyardgrass ([5]; 500 g ai/ha): 50
- Plant response rating, Pigweed ([6]; 125 g ai/ha): 0
- Plant response rating, Pigweed ([6]; 500 g ai/ha): 0
- Plant response rating, Rice (rice (Oryza sativa); 31 g ai/ha): 0
- Plant response rating, Rice (rice (Oryza sativa); 62 g ai/ha): 0
- Plant response rating, Rice (rice (Oryza sativa); 125 g ai/ha): 0
- Plant response rating, Rice (rice (Oryza sativa); 250 g ai/ha): 0
- Plant response rating, Crabgrass, Large ([7]; 125 g ai/ha): 30
- Plant response rating, Crabgrass, Large ([7]; 500 g ai/ha): 50
- Plant response rating, Velvetleaf ([8]; 125 g ai/ha): 0
- Plant response rating, Velvetleaf ([8]; 500 g ai/ha): 0
- Plant response rating, Crabgrass, Large ([9]; 125 g ai/ha): 30
- Plant response rating, Crabgrass, Large ([9]; 500 g ai/ha): 50
- Plant response rating, Wheat ([10]; 125 g ai/ha): 0
- Plant response rating, Wheat ([10]; 500 g ai/ha): 20
- Plant response rating, Velvetleaf ([11]; 125 g ai/ha): 0
- Plant response rating, Velvetleaf ([11]; 500 g ai/ha): 0
- Plant response rating, Barnyardgrass ([12]; 31 g ai/ha, scale 0 to 100): 0
- Plant response rating, Barnyardgrass ([12]; 62 g ai/ha, scale 0 to 100): 0
- Plant response rating, Barnyardgrass ([12]; 125 g ai/ha, scale 0 to 100): 0
- Plant response rating, Barnyardgrass [12, 20]: 0
- Plant response rating, Foxtail, Giant ([13]; 125 g ai/ha): 50
- Plant response rating, Foxtail, Giant ([13]; 500 g ai/ha): 60
- Plant response rating, Morningglory ([14]; 125 g ai/ha): 0
- Plant response rating, Morningglory ([14]; 500 g ai/ha): 30
- Plant response rating, Barnyardgrass ([15]; 125 g ai/ha): 0
- Plant response rating, Barnyardgrass ([15]; 500 g ai/ha): 60
- Plant response rating, Foxtail, Giant ([16]; 125 g ai/ha): 30
- Plant response rating, Foxtail, Giant ([16]; 500 g ai/ha): 70
- Plant response rating, Sedge, Umbrella ([17]; 31 g ai/ha): 0
- Plant response rating, Sedge, Umbrella ([17]; 62 g ai/ha): 0
- Plant response rating, Sedge, Umbrella ([17]; 125 g ai/ha): 0
- Plant response rating, Sedge, Umbrella ([17]; 250 g ai/ha): 0
- Plant response rating, Ducksalad ([18]; 31 g ai/ha): 0
- Plant response rating, Ducksalad ([18]; 62 g ai/ha): 0
- Plant response rating, Ducksalad ([18]; 125 g ai/ha): 0
- Plant response rating, Ducksalad ([18]; 250 g ai/ha): 0
- Plant response rating, Wheat ([19]; 125 g ai/ha): 0
- Plant response rating, Wheat ([19]; 500 g ai/ha): 0

Structure (SMILES): CCn1c(=O)c(CS(=O)(=O)C2=NOC(C)(C)C2)nc2cccnc21 [Compound 57]
- Plant response rating, Corn (corn (Zea mays) [1]; 125 g ai/ha): 0
- Plant response rating, Corn (corn (Zea mays) [1]; 500 g ai/ha): 0
- Plant response rating, Pigweed ([2]; 125 g ai/ha): 0
- Plant response rating, Pigweed ([2]; 500 g ai/ha): 0
- Plant response rating, Corn (corn (Zea mays) [3]; 125 g ai/ha): 0
- Plant response rating, Corn (corn (Zea mays) [3]; 500 g ai/ha): 0
- Plant response rating, Morningglory ([4]; 125 g ai/ha): 0
- Plant response rating, Morningglory ([4]; 500 g ai/ha): 0
- Plant response rating, Barnyardgrass ([5]; 125 g ai/ha): 0
- Plant response rating, Barnyardgrass ([5]; 500 g ai/ha): 30
- Plant response rating, Pigweed ([6]; 125 g ai/ha): 0
- Plant response rating, Pigweed ([6]; 500 g ai/ha): 0
- Plant response rating, Rice (rice (Oryza sativa); 31 g ai/ha): 0
- Plant response rating, Rice (rice (Oryza sativa); 62 g ai/ha): 0
- Plant response rating, Rice (rice (Oryza sativa); 125 g ai/ha): 0
- Plant response rating, Rice (rice (Oryza sativa); 250 g ai/ha): 0
- Plant response rating, Crabgrass, Large ([7]; 125 g ai/ha): 40
- Plant response rating, Crabgrass, Large ([7]; 500 g ai/ha): 50
- Plant response rating, Velvetleaf ([8]; 125 g ai/ha): 0
- Plant response rating, Velvetleaf ([8]; 500 g ai/ha): 0
- Plant response rating, Crabgrass, Large ([9]; 125 g ai/ha): 10
- Plant response rating, Crabgrass, Large ([9]; 500 g ai/ha): 40
- Plant response rating, Wheat ([10]; 125 g ai/ha): 0
- Plant response rating, Wheat ([10]; 500 g ai/ha): 0
- Plant response rating, Velvetleaf ([11]; 125 g ai/ha): 0
- Plant response rating, Velvetleaf ([11]; 500 g ai/ha): 0
- Plant response rating, Barnyardgrass ([12]; 31 g ai/ha, scale 0 to 100): 0
- Plant response rating, Barnyardgrass ([12]; 62 g ai/ha, scale 0 to 100): 0
- Plant response rating, Barnyardgrass ([12]; 125 g ai/ha, scale 0 to 100): 0
- Plant response rating, Barnyardgrass [12, 20]: 0
- Plant response rating, Foxtail, Giant ([13]; 125 g ai/ha): 0
- Plant response rating, Foxtail, Giant ([13]; 500 g ai/ha): 30
- Plant response rating, Morningglory ([14]; 125 g ai/ha): 0
- Plant response rating, Morningglory ([14]; 500 g ai/ha): 0
- Plant response rating, Barnyardgrass ([15]; 125 g ai/ha): 0
- Plant response rating, Barnyardgrass ([15]; 500 g ai/ha): 40
- Plant response rating, Foxtail, Giant ([16]; 125 g ai/ha): 0
- Plant response rating, Foxtail, Giant ([16]; 500 g ai/ha): 40
- Plant response rating, Sedge, Umbrella ([17]; 31 g ai/ha): 0
- Plant response rating, Sedge, Umbrella ([17]; 62 g ai/ha): 0
- Plant response rating, Sedge, Umbrella ([17]; 125 g ai/ha): 0
- Plant response rating, Sedge, Umbrella ([17]; 250 g ai/ha): 0
- Plant response rating, Ducksalad ([18]; 31 g ai/ha): 0
- Plant response rating, Ducksalad ([18]; 62 g ai/ha): 0
- Plant response rating, Ducksalad ([18]; 125 g ai/ha): 0
- Plant response rating, Ducksalad ([18]; 250 g ai/ha): 0
- Plant response rating, Wheat ([19]; 125 g ai/ha): 0
- Plant response rating, Wheat ([19]; 500 g ai/ha): 0
